Measurements: ChEMBL document CHEMBL5154765, “Design, synthesis, and biological evaluation of novel spiro[pyrrolidine-2,3'-quinolin]-2'-one derivatives as potential chitin synthase inhibitors and antifungal agents” (Eur J Med Chem, 2022)
In brackets after ≈: the same amount, converted by molar mass.

Experiments:
Candida albicans [1] = test: Antifungal activity against Candida albicans ATCC 76615 assessed as reduction in fungal growth incubated for 24 hrs by two fold broth dilution method; type: functional
Aspergillus fumigatus [2] = test: Antifungal activity against Aspergillus fumigatus GIMCC 3.19 assessed as reduction in fungal growth incubated for 24 hrs by two fold broth dilution method; type: functional
Candida albicans [3] = test: Antifungal activity against micafungin resistant Candida albicans ATCC 76615 assessed as reduction in fungal growth incubated for 24 hrs by two fold broth dilution method; type: functional
Cryptococcus neoformans [4] = test: Antifungal activity against Cryptococcus neoformans ATCC 32719 assessed as reduction in fungal growth in presence of sorbitol incubated for 24 hrs by two fold broth dilution method; type: functional
Aspergillus fumigatus [5] = test: Antifungal activity against Aspergillus fumigatus GIMCC 3.19 assessed as reduction in fungal growth in presence of sorbitol incubated for 24 hrs by two fold broth dilution method; type: functional
[6] = Inhibition of Candida tropicalis ATCC750 chitin synthase using UDP-GlcNAc as substrate incubated for 1 hr by microplate reader analysis
Cryptococcus neoformans [7] = test: Antifungal activity against fluconazole resistant Cryptococcus neoformans ATCC 32719 assessed as reduction in fungal growth incubated for 24 hrs by two fold broth dilution method; type: functional
Candida albicans [8] = test: Antifungal activity against Candida albicans ATCC 76615 assessed as reduction in fungal growth in presence of sorbitol incubated for 24 hrs by two fold broth dilution method; type: functional
Candida albicans [9] = test: Antifungal activity against fluconazole resistant Candida albicans ATCC 76615 assessed as reduction in fungal growth incubated for 24 hrs by two fold broth dilution method; type: functional
Aspergillus flavus [10] = test: Antifungal activity against Aspergillus flavus ATCC 16870 assessed as reduction in fungal growth in presence of sorbitol incubated for 24 hrs by two fold broth dilution method; type: functional
Aspergillus flavus [11] = test: Antifungal activity against fluconazole resistant Aspergillus flavus ATCC 16870 assessed as reduction in fungal growth incubated for 24 hrs by two fold broth dilution method; type: functional
Aspergillus fumigatus [12] = test: Antifungal activity against fluconazole resistant Aspergillus fumigatus GIMCC 3.19 assessed as reduction in fungal growth incubated for 24 hrs by two fold broth dilution method; type: functional
Aspergillus flavus [13] = test: Antifungal activity against Aspergillus flavus ATCC 16870 assessed as reduction in fungal growth incubated for 24 hrs by two fold broth dilution method; type: functional
Candida tropicalis = test: Inhibition of Candida tropicalis ATCC750 chitin synthase at 300 ug/ml using UDP-GlcNAc as substrate incubated for 1 hr by microplate reader analysis relative to control; details: dose 300.0 µg/ml
Cryptococcus neoformans [14] = test: Antifungal activity against Cryptococcus neoformans ATCC 32719 assessed as reduction in fungal growth incubated for 24 hrs by two fold broth dilution method; type: functional

For `O=C(/C=C/C(=O)N1CCCC12Cc1ccccc1NC2=O)Nc1ccccc1Cl` (stereo unspecified), the MIC (Candida albicans [1]) was 4 µg/mL (≈ 9.76 µM), the MIC (Aspergillus fumigatus [2]) was 4 µg/mL (≈ 9.76 µM) and the MIC (Candida albicans [3]) was 32 µg/mL (≈ 78.1 µM). The MIC (Cryptococcus neoformans [4]) was 64 µg/mL, the MIC (Aspergillus fumigatus [5]) was 64 µg/mL and the IC50 [6] was 120 µM. For the same compound, the MIC (Cryptococcus neoformans [7]) was 32 µg/mL (≈ 78.1 µM), the MIC (Candida albicans [8]) was 32 µg/mL and the MIC (Candida albicans [9]) was 32 µg/mL (≈ 78.1 µM). The MIC (Aspergillus flavus [10]) was 128 µg/mL, the MIC (Aspergillus flavus [11]) was 16 µg/mL (≈ 39 µM) and the MIC (Aspergillus fumigatus [12]) was 32 µg/mL (≈ 78.1 µM). It also gave an MIC (Aspergillus flavus [13]) of 8 µg/mL (≈ 19.5 µM), an inhibition (Candida tropicalis) of 76.1% and an MIC (Cryptococcus neoformans [14]) of 8 µg/mL (≈ 19.5 µM).
In the case of `COc1cccc(NC(=O)/C=C/C(=O)N2CCCC23Cc2ccccc2NC3=O)c1` (stereo unspecified), the MIC (Candida albicans [1]) is reported as 8 µg/mL (≈ 19.7 µM), the MIC (Aspergillus fumigatus [2]) is reported as 32 µg/mL (≈ 78.9 µM) and the IC50 [6] is reported as 770 µM. The MIC (Aspergillus flavus [13]) was 16 µg/mL (≈ 39.5 µM), the inhibition (Candida tropicalis) was 48.3% and the MIC (Cryptococcus neoformans [14]) was 32 µg/mL (≈ 78.9 µM).
`Cc1cccc(NC(=O)/C=C/C(=O)N2CCCC23Cc2ccccc2NC3=O)c1` (stereo unspecified) gave an MIC (Candida albicans [1]) of 16 µg/mL (≈ 41.1 µM), an MIC (Aspergillus fumigatus [2]) of 64 µg/mL (≈ 164 µM) and an IC50 [6] of 1210 µM. The MIC (Aspergillus flavus [13]) was 32 µg/mL (≈ 82.2 µM), the inhibition (Candida tropicalis) was 44.1% and the MIC (Cryptococcus neoformans [14]) was 128 µg/mL (≈ 329 µM).
In the case of `Cc1ccccc1NC(=O)/C=C/C(=O)N1CCCC12Cc1ccccc1NC2=O` (stereo unspecified), the MIC (Candida albicans [1]) is reported as 8 µg/mL (≈ 20.5 µM), the MIC (Aspergillus fumigatus [2]) is reported as 8 µg/mL (≈ 20.5 µM) and the IC50 [6] is reported as 970 µM. It also gave an MIC (Aspergillus flavus [13]) of 16 µg/mL (≈ 41.1 µM), an inhibition (Candida tropicalis) of 47.2% and an MIC (Cryptococcus neoformans [14]) of 64 µg/mL (≈ 164 µM).
`O=C(/C=C/C(=O)N1CCCC12Cc1ccccc1NC2=O)Nc1ccc(Cl)cc1` (stereo unspecified) showed an MIC (Candida albicans [1]) of 4 µg/mL (≈ 9.76 µM), an MIC (Aspergillus fumigatus [2]) of 4 µg/mL (≈ 9.76 µM) and an MIC (Candida albicans [3]) of 128 µg/mL (≈ 312 µM). For the same compound, the MIC (Cryptococcus neoformans [4]) was 128 µg/mL, the MIC (Aspergillus fumigatus [5]) was 64 µg/mL and the IC50 [6] was 170 µM. The MIC (Cryptococcus neoformans [7]) was 128 µg/mL (≈ 312 µM), the MIC (Candida albicans [8]) was 32 µg/mL and the MIC (Candida albicans [9]) was 128 µg/mL (≈ 312 µM). For the same compound, the MIC (Aspergillus flavus [10]) was 64 µg/mL, the MIC (Aspergillus flavus [11]) was 64 µg/mL (≈ 156 µM) and the MIC (Aspergillus fumigatus [12]) was 64 µg/mL (≈ 156 µM). It also gave an MIC (Aspergillus flavus [13]) of 8 µg/mL (≈ 19.5 µM), an inhibition (Candida tropicalis) of 71.8% and an MIC (Cryptococcus neoformans [14]) of 16 µg/mL (≈ 39 µM).
With `O=C(/C=C/C(=O)N1CCCC12Cc1ccccc1NC2=O)Nc1ccc(Cl)cc1Cl` (stereo unspecified) the MIC (Candida albicans [1]) was 4 µg/mL (≈ 9 µM), the MIC (Aspergillus fumigatus [2]) was 8 µg/mL (≈ 18 µM) and the MIC (Candida albicans [3]) was 64 µg/mL (≈ 144 µM). For the same compound, the MIC (Cryptococcus neoformans [4]) was 128 µg/mL, the MIC (Aspergillus fumigatus [5]) was 64 µg/mL and the IC50 [6] was 170 µM. It also gave an MIC (Cryptococcus neoformans [7]) of 64 µg/mL (≈ 144 µM), an MIC (Candida albicans [8]) of 64 µg/mL and an MIC (Candida albicans [9]) of 64 µg/mL (≈ 144 µM). For the same compound, the MIC (Aspergillus flavus [10]) was 128 µg/mL, the MIC (Aspergillus flavus [11]) was 64 µg/mL (≈ 144 µM) and the MIC (Aspergillus fumigatus [12]) was 64 µg/mL (≈ 144 µM). The MIC (Aspergillus flavus [13]) was 8 µg/mL (≈ 18 µM), the inhibition (Candida tropicalis) was 73.7% and the MIC (Cryptococcus neoformans [14]) was 16 µg/mL (≈ 36 µM).
Compound `O=C(/C=C/C(=O)N1CCCC12Cc1ccccc1NC2=O)Nc1cccc2ccccc12` (stereo unspecified) has an MIC (Candida albicans [1]) of 8 µg/mL (≈ 18.8 µM), an MIC (Aspergillus fumigatus [2]) of 16 µg/mL (≈ 37.6 µM) and an IC50 [6] of 570 µM. The MIC (Aspergillus flavus [13]) was 16 µg/mL (≈ 37.6 µM), the inhibition (Candida tropicalis) was 53.6% and the MIC (Cryptococcus neoformans [14]) was 64 µg/mL (≈ 150 µM).
`Cc1ccc(NC(=O)/C=C/C(=O)N2CCCC23Cc2ccccc2NC3=O)cc1` (stereo unspecified) showed an MIC (Candida albicans [1]) of 32 µg/mL (≈ 82.2 µM), an MIC (Aspergillus fumigatus [2]) of 64 µg/mL (≈ 164 µM) and an IC50 [6] of 1070 µM. The MIC (Aspergillus flavus [13]) was 16 µg/mL (≈ 41.1 µM), the inhibition (Candida tropicalis) was 46.4% and the MIC (Cryptococcus neoformans [14]) was 64 µg/mL (≈ 164 µM).
`COc1ccccc1NC(=O)/C=C/C(=O)N1CCCC12Cc1ccccc1NC2=O` (stereo unspecified) showed an MIC (Candida albicans [1]) of 8 µg/mL (≈ 19.7 µM), an MIC (Aspergillus fumigatus [2]) of 8 µg/mL (≈ 19.7 µM) and an IC50 [6] of 300 µM. For the same compound, the MIC (Aspergillus flavus [13]) was 16 µg/mL (≈ 39.5 µM), the inhibition (Candida tropicalis) was 65.2% and the MIC (Cryptococcus neoformans [14]) was 64 µg/mL (≈ 158 µM).
